The target in experiment [1] is T1, human TNF-α (Homo sapiens, UniProt P01375). As to the kind of experiment: TNF-α functional assay (hHEK-TNF-α SEAP reporter cells). The class given is cell-based. Set-up: purchased ACROBiosystems TNA-H4211. Particulars: hHEK-TNF-α cells, SEAP readout, TNF-α added at EC80 (1.034 pM), 18-24 hours; read-out: TNF-α Function IC50. The text has this:
Human HEK TNF-αcells (hHEK-TNF-α cells; InvivoGen Catalog #hkb-tnfdmyd; San Diego, CA, USA) are human embryonic kidney HEK293 cells that are stably transfected with the reporter gene, secreted alkaline phosphatase (SEAP). The hHEK-TNF-α cells allow for the detection of bioactive human and murine TNF-α via the activation of the NF-kB-inducible promoter and subsequent production of SEAP. Bioactivity of commercial human TNF-α protein (ActiveMax® Human TNF-α Protein, Tag Free, Low Endotoxin; available by ACROBiosystems Catalog #TNA-H4211; Newark, DE, USA) was determined in this reporter system.
Test molecules were dissolved in 100% DMSO and serially diluted by either 3-fold serial dilution or 4-fold serial dilution. […] TNF-α protein was added at the previously determined ECso. Plates containing cells, test molecules, and cytokine were incubated overnight for 18-24 hours at 37° C., 5% CO2.
The level of SEAP in the supernatant of each well was quantified using the Quanti Blue™ Solution (InvivoGen Catalog #rep-qba2; San Diego, CA, USA), a reagent with a colorimetric change in the presence of SEAP. To perform the Quanti-Blue assay: 20 L of the sample supernatant after the overnight 18-24 hour incubation was added to 180 L of Quanti Blue™ Reagent and incubated for 45 minutes at 37° C. […] Inhibition of TNF-α signaling was calculated utilizing GraphPad Prism (San Diego, CA, USA).
Target sequence in this assay (P01375 77-233 limits assumed): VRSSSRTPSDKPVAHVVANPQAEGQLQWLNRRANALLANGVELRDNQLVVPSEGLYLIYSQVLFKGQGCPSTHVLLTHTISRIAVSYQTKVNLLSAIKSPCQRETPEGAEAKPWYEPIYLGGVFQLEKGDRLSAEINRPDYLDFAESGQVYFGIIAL

In experiment [2] the target is T1, human TNF-α. As to the kind of experiment: TNF-α thermal melt assay. Conditions: thermal melt, SYPRO Orange, Kd calculated as in Matulis et al.; read-out: TM Kd. The format is binding. More on the design: Amino acids 77-233 of Human TNF-α protein with an N-terminal GST tag; GST (N, cleaved yes); made in house; host or cells: Escherichia coli (BL21 NiCo). As to the method: Protein was purified using glutathione agarose purification columns (Pierce™, Waltham, MA, USA). Following purification, the GST tag was removed using HRV3c protease (Pierce™, Waltham, MA, USA) and the GST tag and the TNF-α were separated via ion exchange chromatography using a 20 mM HEPES pH 8.0 buffer system ramping from 0 to 1 M NaCl over 12 column volumes with 5 ml of Q Sepharose (HiScreen Q HP, Cytiva™, Marlborough, MA, USA). The final protein includes the amino acids GPLGSG at the N-terminus of the protein.
Protein was heated from 20° C. to 95° C. at one degree per minute in a Roche Opus384 qPCR machine.
Target sequence in this assay (P01375 77-233): as the sequence (P01375 77-233 limits assumed) above

Experiment [3] deals with T2, native human ASGPR protein (Homo sapiens, UniProt P07306).
T2 sequence (P07306 1-291): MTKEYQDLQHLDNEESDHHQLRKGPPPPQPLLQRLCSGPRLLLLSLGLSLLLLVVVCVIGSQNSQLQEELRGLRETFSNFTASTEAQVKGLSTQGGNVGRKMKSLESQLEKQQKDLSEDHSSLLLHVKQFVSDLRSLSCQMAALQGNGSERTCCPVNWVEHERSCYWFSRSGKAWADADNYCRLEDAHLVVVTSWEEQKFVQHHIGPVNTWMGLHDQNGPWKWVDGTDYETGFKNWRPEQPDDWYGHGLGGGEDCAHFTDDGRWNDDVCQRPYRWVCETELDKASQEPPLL
As to the kind of experiment: Octet (BLI) binding to ASGPR protein. Particulars: 1:1 binding model. The protocol: Protocol. The binding to native human ASGPR protein was measured by Bio-Layer Interferometry (BLI) using the Sartorius Octet 96e platform (Goettingen, Germany). The binding assay was performed using the Ni-NTA (NTA) Dip and Read Biosensors (Sartorius Catalog #18-5101; Goettingen, Germany) in OptiPlate-96F, Black, 96-well, Pinch bar design, plates (Perkin Elmer Catalog #6005270; Waltham, MA, USA) with the following steps: (1) 60 seconds of baseline in Assay Buffer (PBS (Gibco Catalog #10010; Pottstown, PA, USA)+0.05% Tween 20 (v/v) (Fisher BioReagents Catalog BP337-500; Pittsburgh, PA, USA)+0.1% BSA (w/v) (Rockland Catalog #BSA-50; Pottstown, PA, USA) +1 mM CaCl2; Sigma Catalog #21115; Burlington, MA, USA); (2) 600 seconds of loading with 100 nM ASGPR protein; (3) 60 seconds of baseline; (4) 180 seconds of association with a dilution series of ligand consisting of seven concentrations. The eighth tip in the column was run in Assay Buffer to serve as a reference sensor, the signal of which was subtracted from the sample sensors. (5) 180 seconds of dissociation in Assay Buffer.
Results. Data analysis was done using the Octet Data Analysis HT software (Sartorius, Goettingen, Germany). Processed data was globally fit to a 1:1 binding model for determination of the equilibrium dissociation constant (KD).
Background: In BLI a coated tip is dipped into the sample, and binding shifts an interference pattern.

A word on the IC50: it is the midpoint of a concentration-inhibition curve. The term Kd denotes the constant that tells how readily two partners part at equilibrium. Take `CCC(=O)N[C@H]1CO[C@H](COCCOCCOCCOCCn2cc(COCCNC(=O)CNC(=O)CCC(=O)N3CCN(Cc4ccc(-c5c[nH]c6ccncc56)c(OCCc5ccc(-c6cccc7ccncc67)cc5)c4)CC3)nn2)[C@H](O)[C@@H]1O` [Compound 106]: the IC50 in experiment [1] turned out to be 0.356 µM. Besides, the Kd in experiment [2] was 0.05 µM; in experiment [3], > 1 µM.
With `CCC(=O)NC1COC(COCCOCCOCCOCCn2cc(COCC(COCc3cn(CCOCCOCCOCCOCC4OCC(NC(=O)CC)C(O)C4O)nn3)(COCc3cn(CCOCCOCCOCCOCC4OCC(NC(=O)CC)C(O)C4O)nn3)NC(=O)CNC(=O)CCOCCOCCC(=O)N3CCN(Cc4ccc(-c5c[nH]c6ccncc56)c(OCCc5ccc(-c6cccc7ccncc67)cc5)c4)CC3)nn2)C(O)C1O` (stereo not drawn) [Compound 103], in experiment [1], the half-inhibitory concentration (IC50) is > 10000 µM. Further, the Kd was 1 µM in experiment [2] and 0.00213 µM in experiment [3].
Regarding `CCC(=O)NC1COC(COCCOCCOCCOCCn2cc(COCCNC(=O)CNC(=O)CCOCCOCCOCCOCCOCCOCCC(=O)N3CCN(Cc4ccc(-c5c[nH]c6ccncc56)c(OCCc5ccc(-c6cccc7ccncc67)cc5)c4)CC3)nn2)C(O)C1O` (stereo not drawn) [Compound 105], in experiment [1], the IC50 worked out at 0.334 µM. In experiment [2], the Kd was 0.065 µM. The “Octet Kd ASGPR” value in experiment [3] is reported as “weak”.
In the case of `CCC(=O)NC1COC(COCCOCCOCCOCCn2cc(COCC(COCc3cn(CCOCCOCCOCCOCC4OCC(NC(=O)CC)C(O)C4O)nn3)(COCc3cn(CCOCCOCCOCCOCC4OCC(NC(=O)CC)C(O)C4O)nn3)NC(=O)CNC(=O)CCC(=O)N3CCN(Cc4ccc(-c5c[nH]c6ccncc56)c(OCCc5ccc(-c6cccc7ccncc67)cc5)c4)CC3)nn2)C(O)C1O` (stereo not drawn) [Compound 104], the IC50 in experiment [1] amounted to 1 µM. The Kd in experiment [2] is 1 µM; in experiment [3], 0.001 µM.
`CCC(=O)N[C@H]1CO[C@H](COCCOCCOCCOCCn2cc(COCCNC(=O)CNC(=O)CCOCCOCCC(=O)N3CCN(Cc4ccc(-c5c[nH]c6ccncc56)c(OCCc5ccc(-c6cccc7ccncc67)cc5)c4)CC3)nn2)[C@H](O)[C@@H]1O` [Compound 107]: the IC50 in experiment [1] was found to be 0.319 µM. For the same compound, the values for the dissociation constant (Kd) in experiment [2] and in experiment [3] were 0.055 µM and 0.963 µM, respectively.

The values are drawn from US20260256921A1, “BIFUNCTIONAL MOLECULES TO TARGET DEGRADATION OF TUMOR NECROSIS FACTOR” (Biohaven Therapeutics Ltd., priority 2023, published 2026).
